Experiments:
MV-3 cells = test: T-cell - TCB - MV3 killing assay; type: cell-based; details: Homo sapiens, 120 h, T-cells + MCSP-TCB on MV-3 RFP cells, 5 d; for Emax: 20 μM reference compound A1 = 100%, read-out: MSCP TCB killing MV-3 cells 5 d Emax; for EC50: read-out: MSCP TCB killing MV-3 cells 5 d EC50
Method: All culturing steps are executed at 5% CO2, 37° C. and 95% humidity.
MV-3 RFP cells are cultured in MV-3 medium (DMEM+10% FBS, 1× PenStrep and 0.5 μg/mL Puromycin) for at least 3 weeks. Cultured MV-3 cells at 80% confluency are washed once with PBS−− and trypsinized until detached. […] Cells are seeded with 100 μL/well into a 96-well plate (TTP, #92696), and placed for 40 minutes without moving at room temperature in order to achieve evenly distributed attachment of cells. Plates are then incubated until further use.
On the next day, expanded primary human T-cells are thawed and resuspended in T-cell medium to 4*10^6 cells/mL. For 3 hours, they are cultured in a 6-well plate with 6 mL per well at maximum. After culturing the T-cells, they are filtered through a cell strainer (Miltenyi Biotech, #130-041-407), counted again, and cell concentration is adjusted to 2*10^6 cells/mL.
MCSP-TCB or PBS are pre-diluted in T-cell medium (concentration depending on T-cell donor), 4 times more concentrated than the end-concentration. 60 μL/well of pre-dilutions are then distributed into a round bottom plate (Costar, #3799) according to plate layout. Compounds are added in a 9 pt dose response with the Tecan D300e Digital Dispenser, as well 4 times more concentrated than the end-concentration. DMSO concentration of all wells is adjusted to 0.8%, resulting in 0.2% as final concentration.
60 μL per well of T-cell suspension are added to the prepared round bottom plate and resuspended with a manual multichannel. 100 μL/well of the resuspended T-cell suspension including treatments are then transferred cautiously to the over-night cultured MV-3 cells according to plate layout. 100 μL T-cell medium only is added to the outer MV-3 wells only. Final compound DR is starting at 20 μM with a dilution factor of 3.333. Final TCB concentration is between […] and was determined for each T-cell donor individually by running TCB titrations. For each donor, a TCB concentration was chosen which corresponds to 10-20% of MV3 baseline cell killing in the absence of compound treatment. Positive control is the reference compound A1 which is added in a DR, as well as additional wells with only 20 μM. 20 μM of reference compound A1 represent the positive stimulator control, TCB only (DMSO wells) the neutral control.
After transfer of T-cells with treatment pre-dilutions, MV-3 cells are imaged by time-lapse microscopy using IncucyteZOOM™ (Essen BioScience, MI, USA). Imaging is performed every 3 hours for a total of 120 hours (1OX objective, phase and red image channels, acquisition time 400 ms, Green/Red 4614 optical module). RFP object count per well is analysed in the IncucyteZOOM™ Software (Version 2019B Rev2) with a mask that was previously created and optimized for MV-3 cells. Raw data is exported as object count/well and values are normalized as % TCL compared to wells with MV-3 only, representing 100% growth and therefore 0% TCL.
Calculated % TCL values are analysed in Genedata Screener using Roche Normalization PCT_POS_CTRL with MCSP-TCB only set as Neutral Control and 20 μM of the reference compound A1 set as Stimulator Control/100%.
Induced TCL by compounds without TCB treatment or toxicity (observed in the PBS condition) were be flagged.

DGKzeta = DGKzeta (Homo sapiens, UniProt Q13574); test: In vitro DGK inhibition assay (ADP Glo) run by Reaction Biology Corp., DGKzeta; type: biochemical; set-up: purchased Reaction Biology Corp. (assay service); details: 2 nM kinase, 500 uM DLG, 10-dose duplicate
Method: (§1) DGK α and ζ kinases use ATP to phosphorylate the substrate 1,2-dilauroyl-sn-glycerol (DLG). ATP is converted to ADP as a result of this enzymatic reaction.
(§2) After the kinase reaction, an ATP-depletion reagent is added to terminate the kinase reaction and deplete any remaining ATP, leaving only ADP. Second, a detection reagent is added to simultaneously convert ADP to ATP and allow the newly synthesized ATP to be converted to light using a coupled
(§3) luciferase/luciferin reaction.
(§4) DGK α and ζ kinase ADP Glo assays were ran by Reaction Biology Corp., 1 Great Valley Parkway, Suite 2, Malvern, 19355, PA, USA. Information provided by the service provider are the following: DGK α and ζ kinases were used at 2 nM final concentration. Reactions were carried out at 50 µM ATP. 500 uM of the substrate DLG (Dilauroyl-sn-glycerol) was used.

DGKalpha = DGKalpha (Homo sapiens, UniProt P23743); test: In vitro DGK inhibition assay (ADP Glo) run by Reaction Biology Corp., DGKalpha; type: biochemical; set-up: purchased Reaction Biology Corp. (assay service); details: 2 nM kinase, 500 uM DLG, 10-dose duplicate
Method: as §1, §2, §3, §4

Sequence of DGKalpha (P23743 whole entry, species assumed): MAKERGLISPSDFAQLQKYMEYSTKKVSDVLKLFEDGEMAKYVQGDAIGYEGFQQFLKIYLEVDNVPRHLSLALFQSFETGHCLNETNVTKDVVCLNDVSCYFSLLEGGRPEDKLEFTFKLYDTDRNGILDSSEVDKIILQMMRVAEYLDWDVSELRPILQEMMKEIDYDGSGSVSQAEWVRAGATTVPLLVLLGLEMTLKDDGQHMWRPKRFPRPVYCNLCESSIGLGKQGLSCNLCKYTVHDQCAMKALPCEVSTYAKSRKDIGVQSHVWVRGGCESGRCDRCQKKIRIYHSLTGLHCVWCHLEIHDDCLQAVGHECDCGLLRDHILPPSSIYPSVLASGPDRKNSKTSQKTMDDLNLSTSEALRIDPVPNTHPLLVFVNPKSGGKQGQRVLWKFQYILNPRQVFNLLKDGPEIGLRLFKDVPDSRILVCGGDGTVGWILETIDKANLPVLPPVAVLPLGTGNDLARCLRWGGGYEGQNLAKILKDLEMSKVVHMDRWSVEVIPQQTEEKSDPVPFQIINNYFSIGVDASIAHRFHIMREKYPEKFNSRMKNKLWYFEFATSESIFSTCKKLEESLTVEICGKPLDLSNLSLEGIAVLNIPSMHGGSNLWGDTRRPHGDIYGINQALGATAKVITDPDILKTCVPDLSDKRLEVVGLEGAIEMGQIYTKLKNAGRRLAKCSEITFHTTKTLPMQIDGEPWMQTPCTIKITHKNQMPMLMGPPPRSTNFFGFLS
Sequence of DGKzeta (Q13574 whole entry, species assumed): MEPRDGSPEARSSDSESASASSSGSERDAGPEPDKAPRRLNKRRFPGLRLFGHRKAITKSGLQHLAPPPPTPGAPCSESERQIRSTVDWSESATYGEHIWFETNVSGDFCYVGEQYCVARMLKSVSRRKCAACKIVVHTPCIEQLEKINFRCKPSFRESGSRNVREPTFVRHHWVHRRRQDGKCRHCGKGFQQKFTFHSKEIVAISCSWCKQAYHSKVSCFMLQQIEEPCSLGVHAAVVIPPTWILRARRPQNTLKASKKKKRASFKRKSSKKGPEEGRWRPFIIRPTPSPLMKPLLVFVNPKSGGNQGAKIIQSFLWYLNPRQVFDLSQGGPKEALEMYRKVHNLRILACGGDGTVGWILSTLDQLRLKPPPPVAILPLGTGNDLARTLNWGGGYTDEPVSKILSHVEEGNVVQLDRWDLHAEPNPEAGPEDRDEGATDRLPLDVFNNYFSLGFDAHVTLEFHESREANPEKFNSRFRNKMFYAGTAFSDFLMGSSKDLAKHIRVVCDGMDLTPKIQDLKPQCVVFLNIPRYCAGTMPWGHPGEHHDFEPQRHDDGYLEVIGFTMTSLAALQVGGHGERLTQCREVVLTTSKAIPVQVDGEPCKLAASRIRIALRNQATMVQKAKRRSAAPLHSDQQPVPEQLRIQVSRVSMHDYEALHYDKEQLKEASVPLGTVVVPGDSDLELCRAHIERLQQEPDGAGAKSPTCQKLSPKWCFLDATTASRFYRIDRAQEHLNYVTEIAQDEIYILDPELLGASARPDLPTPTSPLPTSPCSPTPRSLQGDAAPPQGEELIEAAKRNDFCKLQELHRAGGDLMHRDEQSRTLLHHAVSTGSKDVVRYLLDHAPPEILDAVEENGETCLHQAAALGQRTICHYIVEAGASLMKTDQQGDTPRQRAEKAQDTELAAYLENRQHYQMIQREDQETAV

Row | SMILES | Emax (MV-3 cells) | EC50 (MV-3 cells) | IC50 (DGKzeta) | IC50 (DGKalpha)
1 | CC(C)(c1nnc(-c2ccc3c(c2)N(Cc2ccc(Oc4cccc(Cl)c4)cc2)C(=O)[C@@H](N)CS3(=O)=O)o1)S(C)(=O)=O [Example 34, (3R)-3-amino-5-[[4-(3-chlorophenoxy)phenyl]methyl]-7-[5-(1-methyl-1-methylsulfonyl-ethyl)-1,3,4-oxadiazol-2-yl]-1,1-dioxo-2,3-dihydro-1λ6,5-benzothiazepin-4-one] | 95% | 392 nM | – | –
2 | CC(C)(c1nnc(-c2ccc3c(c2)N(Cc2ccc(Oc4ccccc4)cc2)C(=O)[C@@H](N)CS3(=O)=O)o1)S(C)(=O)=O [Example 5, (3R)-3-amino-7-[5-(1-methyl-1-methylsulfonyl-ethyl)-1,3,4-oxadiazol-2-yl]-1,1-dioxo-5-[(4-phenoxyphenyl)methyl]-2,3-dihydro-1λ6,5-benzothiazepin-4-one] | 154% | 982 nM | – | –
3 | CC(C)(c1nc(-c2cc3c(cc2F)S(=O)(=O)C[C@H](N)C(=O)N3Cc2ccc(-c3noc(C4CC4)n3)cc2)no1)S(C)(=O)=O [Example 45, (3R)-3-amino-5-[[4-(5-cyclopropyl-1,2,4-oxadiazol-3-yl)phenyl]methyl]-8-fluoro-7-[5-(1-methyl-1-methylsulfonyl-ethyl)-1,2,4-oxadiazol-3-yl]-1,1-dioxo-2,3-dihydro-1λ6,5-benzothiazepin-4-one] | 67% | 35 nM | – | –
4 | CC(C)(c1nnc(-c2ccc3c(c2)N(Cc2ccc(Oc4cccc(F)c4)cc2)C(=O)[C@@H](N)CS3(=O)=O)o1)S(C)(=O)=O [Example 33, (3R)-3-amino-5-[[4-(3-fluorophenoxy)phenyl]methyl]-7-[5-(1-methyl-1-methylsulfonyl-ethyl)-1,3,4-oxadiazol-2-yl]-1,1-dioxo-2,3-dihydro-1λ6,5-benzothiazepin-4-one] | 117% | 465 nM | – | –
5 | CC(C)(c1nc(-c2cc3c(cc2F)S(=O)(=O)C[C@H](N)C(=O)N3Cc2ccc(OC(F)(F)F)cc2)no1)S(C)(=O)=O [Example 44, (3R)-3-amino-8-fluoro-7-[5-(1-methyl-1-methylsulfonyl-ethyl)-1,2,4-oxadiazol-3-yl]-1,1-dioxo-5-[[4-(trifluoromethoxy)phenyl]methyl]-2,3-dihydro-1λ6,5-benzothiazepin-4-one] | 131% | 65 nM | – | –
6 | CC(C)(c1nnc(-c2ccc3c(c2)N(Cc2ccc(-c4ccc(C(F)(F)F)cc4)cc2)C(=O)[C@@H](N)CS3(=O)=O)o1)S(C)(=O)=O [Example 56, (3R)-3-amino-7-[5-(1-methyl-1-methylsulfonyl-ethyl)-1,3,4-oxadiazol-2-yl]-1,1-dioxo-5-[[4-[4-(trifluoromethyl)phenyl]phenyl]methyl]-2,3-dihydro-1λ6,5-benzothiazepin-4-one] | 100% | 105 nM | 142 nM | 67.7 nM
7 | CC(C)(c1nc(-c2cc3c(cc2F)S(=O)(=O)C[C@H](N)C(=O)N3Cc2ccc(Oc3ccccc3)cc2)no1)S(C)(=O)=O [Example 30, (3R)-3-amino-8-fluoro-7-[5-(1-methyl-1-methylsulfonyl-ethyl)-1,2,4-oxadiazol-3-yl]-1,1-dioxo-5-[(4-phenoxyphenyl)methyl]-2,3-dihydro-1λ6,5-benzothiazepin-4-one] | 100% | 41 nM | 5.5 nM | 7.8 nM
8 | CC(C)(c1nnc(-c2ccc3c(c2)N(Cc2ccc(Oc4cccc(C(F)(F)F)c4)cc2)C(=O)[C@@H](N)CS3(=O)=O)o1)S(C)(=O)=O [Example 38] | 102% | 112 nM | – | –
9 | CC(C)(c1nnc(-c2ccc3c(c2)N(Cc2ccc(-c4ccc(C(F)(F)F)cc4)nc2)C(=O)[C@@H](N)CS3(=O)=O)o1)S(C)(=O)=O [Example 57, (3R)-3-amino-7-[5-(1-methyl-1-methylsulfonyl-ethyl)-1,3,4-oxadiazol-2-yl]-1,1-dioxo-5-[[6-[4-(trifluoromethyl)phenyl]-3-pyridyl]methyl]-2,3-dihydro-1λ6,5-benzothiazepin-4-one] | 104% | 1850 nM | – | –
10 | CC(C)(c1nnc(-c2cc3c(cc2F)S(=O)(=O)C[C@H](N)C(=O)N3Cc2ccc(-c3ccc(C(F)(F)F)cc3)cc2)o1)S(C)(=O)=O [Example 35, (3R)-3-amino-8-fluoro-7-[5-(1-methyl-1-methylsulfonyl-ethyl)-1,3,4-oxadiazol-2-yl]-1,1-dioxo-5-[[4-[4-(trifluoromethyl)phenyl]phenyl]methyl]-2,3-dihydro-1λ6,5-benzothiazepin-4-one] | – | – | 6.6 nM | 7.1 nM
11 | CC(C)(c1nc(-c2cc3c(cc2F)S(=O)(=O)C[C@H](N)C(=O)N3Cc2ccc(-c3noc(C(F)(F)F)n3)cc2)no1)S(C)(=O)=O [Example 46, (3R)-3-amino-8-fluoro-7-[5-(1-methyl-1-methylsulfonyl-ethyl)-1,2,4-oxadiazol-3-yl]-1,1-dioxo-5-[[4-[5-(trifluoromethyl)-1,2,4-oxadiazol-3-yl]phenyl]methyl]-2,3-dihydro-1λ6,5-benzothiazepin-4-one] | 65% | 25 nM | – | –

Source: patent US20260035364A1, “BICYCLIC TETRAHYDROTHIAZEPINE DERIVATIVES” (Hoffmann-La Roche Inc., priority 2022, published 2026)
